Measurements: patent US20070134261A1, “Effectors of innate immunity” (priority 2001, published 2007)
≈ marks a conversion by molar mass, not a printed value. Read-outs that look alike come from different tables or passages of the source. Residues, ends and D or L forms follow the SMILES beside them.

Columns and labels:
[1] = assay type: cell-based
[2] = system: S. aureus; assay: Murine S. aureus infection model (CD-1 mice); assay type: in vivo, mouse; conditions: peptide 200 μg IP; for CFU/ml (blood): 3 days, No Peptide 7.61 ± 1.7 × 10^3; for # Mice Survived (3 days)/Total mice in group: No Peptide 6/8
Procedure: (§1) BALB/c mice were given 1×10^5 Salmonella and cationic peptide (200 μg) by intraperitoneal injection. The mice were monitored for 24 hours at which point they were euthanized, the spleen removed, homogenized and resuspended in PBS and plated on Luria Broth agar plates with Kanamycin (50 μg/ml). The plates were incubated overnight at 37° C. and counted for viable bacteria (Table 49 and 50). CD-1 mice were given 1×10^8 S. aureus in 5% porcine mucin and cationic peptide (200 μg) by intraperitoneal injection (Table 51). The mice were monitored for 3 days at which point they were euthanized, blood removed and plated for viable counts. CD-1 male mice were given 5.8×10^6 CFU EHEC bacteria and cationic peptide (200 μg) by intraperitoneal (IP) injection and monitored for 3 days (Table 52). […] Many of the cationic peptides were shown not to be directly antimicrobial as tested by the Minimum Inhibitory Concentration (MIC) assay (Table 54).

[3] = system: RAW 264.7 mouse macrophage cells; assay type: cell-based; conditions: Peptide 20 μg/ml; 100 ng/ml E. coli 0111:B4 LPS, 6 h
[4] = system: Salmonella; assay: Salmonella infection in BALB/c mice (viable bacteria in spleen); assay type: in vivo, mouse; conditions: Table 49; peptide 200 μg IP, 24 h; Control 2.70 ± […] 10^5
Procedure: as §1

[5] = system: BALB/c mice; assay: Lethal endotoxemia in galactosamine-sensitized BALB/c mice; assay type: in vivo; conditions: 2 μg LPS; peptide 200 μg/mouse = 8 mg/kg IP 15 min after LPS; 48 hours; no peptide 10
[6] = system: human bronchial epithelial cells (HBE); assay: LDH release assay (Cytotoxicity Detection Kit); assay type: cell-based; conditions: 100 μg/ml, 24 hours; no peptide control 1.0 ± 0.05
Method in brief: (§2)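 Both read-outs were colorimetric at OD490 on HBE cells after 24 h with 100 μg of each peptide. The WST-1 assay reported viability through mitochondrial dehydrogenase cleavage of the tetrazolium salt. The LDH assay tested the removed supernatant for enzyme leaked from membrane-damaged cells.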

[7] = system: A549 human epithelial cells; assay: Induction of chemokines (IL-8, MCP-1) in A549 cells (ELISA); assay type: cell-based; conditions: peptide 10 ug/ml, 24 hr
Procedure: The murine macrophage cell line RAW 264.7, THP-1 cells (human monocytes), a human epithelial cell line (A549), human bronchial epithelial cells (16HBEo14), and whole human blood were used. HBE cells were grown in MEM with Earle's. THP-1 cells were grown and maintained in RPMI 1640 medium. The RAW and A549 cell lines were maintained in DMEM supplemented with 10% fetal calf serum. […] DMEM was aspirated from cells grown overnight and replaced with fresh medium. After incubation of the cells with peptide, the release of chemokines into the culture supernatant was determined by ELISA (R&D Systems, Minneapolis, Minn.).

[8] = system: CD-1 mice; assay: Lethal endotoxemia in galactosamine-sensitized CD-1 mice; assay type: in vivo; conditions: 2 μg LPS; peptide 200 μg/mouse = 8 mg/kg IP 15 min after LPS; 48 hours; control 0
[9] = system: HBE cells; assay: WST-1 assay (cell viability); assay type: cell-based, human
Method in brief: as §2

| Compound | MIC, C. rhod. ([1]; 24 h) [µg/mL] | MIC, E. coli ([1]; 24 h) [µg/mL] | MIC, P. aerug. ([1]; 24 h) [µg/mL] | MIC, S. aureus ([1]; 24 h) [µg/mL] | MIC, S. typhim. ([1]; 24 h) [µg/mL] | CFU/ml (blood) [2] | # Mice Survived (3 days)/Total mice in group [2] | Inhibition of TNF-α [3] [%] | Viable Bacteria in the Spleen [4] | Survival [5] [%] | LDH Release (OD490 nm) [6] [OD490 nm] | IL-8 [7] [ng/mL] | Survival [8] [%] | MIC, EHEC ([1]; 24 h) [µg/mL] | MIC, S. aureus ([1]; Staphylococcus aureus, overnight, 96-well plate) | OD490 nm (WST-1 cell viability) [9] [OD490 nm] | OD490 nm (WST-1 cell viability) ([9]; 100 μg/ml, 24 hours, no peptide control 1.63 ± 0.16) [OD490 nm] |
| --- | --- | --- | --- | --- | --- | --- | --- | --- | --- | --- | --- | --- | --- | --- | --- | --- | --- |
| CC[C@H](C)[C@H](N)C(=O)N[C@@H](CC(C)C)C(=O)N1CCC[C@H]1C(=O)N[C@@H](Cc1c[nH]c2ccccc12)C(=O)N[C@@H](CCCCN)C(=O)N[C@@H](Cc1c[nH]c2ccccc12)C(=O)N1CCC[C@H]1C(=O)N[C@@H](Cc1c[nH]c2ccccc12)C(=O)N[C@@H](Cc1c[nH]c2ccccc12)C(=O)N1CCC[C@H]1C(=O)N[C@@H](Cc1c[nH]c2ccccc12)C(=O)N[C@@H](CCCNC(=N)N)C(=O)N[C@@H](CCCNC(=N)N)C(N)=O [SEQ ID NO: 2] | 64 (≈ 33.6 µM) | 4 (≈ 2.1 µM) | 32 (≈ 16.8 µM) | 16 (≈ 8.39 µM) | 16 (≈ 8.39 µM) |  |  |  |  |  |  |  |  |  |  |  |  |
| CC[C@H](C)[C@H](NC(=O)[C@@H]1CCCN1C(=O)[C@H](CS)NC(=O)[C@H](CCCNC(=N)N)NC(=O)[C@@H](N)CC(C)C)C(=O)N[C@@H](C)C(=O)N1CCC[C@H]1C(=O)N[C@H](C(=O)N[C@H](C(=O)N1CCC[C@H]1C(=O)N[C@H](C(=O)N[C@@H](CS)C(=O)N[C@@H](CCCCN)C(=O)N[C@@H](CCCCN)C(=O)O)C(C)C)[C@@H](C)CC)C(C)C [SEQ ID NO: 6] (H-LRCPIAPVIPVCKK-OH; N-terminus and C-terminus assumed) | 64 (≈ 41.6 µM) | 128 (≈ 83.3 µM) |  |  | 128 (≈ 83.3 µM) | 1.98 ± 0.05 × 10^2 CFU/ml | 3/4 | 59.8 ± 1.2 | 2.57 ± 0.72 × 10^4 CFU/ml | 17 | 0.97 ± 0.02 | 0.181 | 40 | 64 (≈ 41.6 µM) | > | 1.81 ± 0.05 |  |
| CSCC[C@H](NC(=O)[C@H](CO)NC(=O)[C@@H](NC(=O)[C@H](CCCCN)NC(=O)[C@H](Cc1ccccc1)NC(=O)[C@H](CS)NC(=O)[C@H](CO)NC(=O)[C@H](CCCNC(=N)N)NC(=O)[C@@H](N)CCCCN)C(C)C)C(=O)N[C@@H](CCCNC(=N)N)C(=O)NCC(=O)N[C@H](C(=O)N[C@@H](CO)C(=O)N[C@@H](CCCNC(=N)N)C(=O)N[C@@H](CCCNC(=N)N)C(=O)N[C@@H](CCCNC(=N)N)C(=O)N[C@@H](CS)C(=O)N[C@@H](CCCCN)C(=O)O)C(C)C [SEQ ID NO: 27] (H-KRSCFKVSMRGVSRRRCK-OH; N-terminus and C-terminus assumed) | 2 (≈ 0.915 µM) | 8 (≈ 3.66 µM) | 64 (≈ 29.3 µM) | 64 (≈ 29.3 µM) | 16 (≈ 7.32 µM) | 2.25 ± 0.1 × 10^2 CFU/ml | 3/4 | 51.1 ± 2.8 | 1.01 ± 0.26 × 10^5 CFU/ml | 50 | 0.91 ± 0.04 | 0.346 | 20 | 4 (≈ 1.83 µM) |  |  | 1.63 ± 0.03 |
